Patent US20060040957A1, “BICYCLIC PYRIMIDINE MATRIX METALLOPROTEINASE INHIBITORS” (priority 2001, published 2006)
Where a name gives a salt, the structure may show the parent alone.

Assays:
Format in all cases: biochemical
[1] = biological target: T1, MMP-7FL (full length matrilysin) (Homo sapiens, UniProt P09237); assay: Thiopeptolide substrate hydrolysis assay, MMP-7FL; conditions: HEPES pH 7.0, 22° C., read-out: IC50 (μM) Versus Certain MMPs: MMP-07 FL
T1 sequence (P09237 95-267): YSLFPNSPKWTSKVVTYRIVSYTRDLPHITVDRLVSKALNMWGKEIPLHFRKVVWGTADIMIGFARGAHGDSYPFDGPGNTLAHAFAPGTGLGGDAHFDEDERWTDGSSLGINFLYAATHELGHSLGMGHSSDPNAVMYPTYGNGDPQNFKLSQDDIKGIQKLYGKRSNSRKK
Text: (§1) The invention compounds of Formula I have been evaluated in standard assays for their ability to inhibit the catalytic activity of various MMP enzymes.
(§2) Thiopeptolide substrates show virtually no decomposition or hydrolysis at or below neutral pH in the absence of a matrix metalloproteinase enzyme.
(§3) Several representative compounds have been evaluated for their ability to inhibit various matrix metalloproteinase enzymes.

[2] = biological target: T2, MMP-2FL (full length Gelatinase A) (Homo sapiens, UniProt P08253); assay: Thiopeptolide substrate hydrolysis assay, MMP-2FL; conditions: HEPES pH 7.0, 22° C., read-out: IC50 (μM) Versus Certain MMPs: MMP-02 FL
T2 sequence (P08253 110-660): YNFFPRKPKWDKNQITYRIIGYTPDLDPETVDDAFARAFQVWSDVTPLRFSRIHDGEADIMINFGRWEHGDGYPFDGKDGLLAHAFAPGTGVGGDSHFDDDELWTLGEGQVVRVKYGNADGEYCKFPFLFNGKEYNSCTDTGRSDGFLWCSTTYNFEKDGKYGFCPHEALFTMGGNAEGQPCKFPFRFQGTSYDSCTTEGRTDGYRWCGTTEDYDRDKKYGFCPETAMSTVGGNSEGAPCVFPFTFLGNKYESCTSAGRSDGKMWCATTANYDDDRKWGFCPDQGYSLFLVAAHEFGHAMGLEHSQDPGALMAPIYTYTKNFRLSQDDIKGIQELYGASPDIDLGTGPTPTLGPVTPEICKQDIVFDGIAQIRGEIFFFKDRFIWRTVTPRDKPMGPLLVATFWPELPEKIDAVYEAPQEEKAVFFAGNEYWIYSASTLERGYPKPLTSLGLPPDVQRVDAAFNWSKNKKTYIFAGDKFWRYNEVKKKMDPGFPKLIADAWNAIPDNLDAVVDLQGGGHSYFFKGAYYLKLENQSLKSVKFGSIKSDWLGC
Text: as §1, §2, §3

[3] = biological target: MMP-14CD (catalytic domain of MMP-14) (Homo sapiens, UniProt P50281); assay: Thiopeptolide substrate hydrolysis assay, MMP-14CD; conditions: HEPES pH 7.0, 22° C., read-out: IC50 (μM) Versus Certain MMPs: MMP-14 CD
Text: as §1, §2, §3

[4] = biological target: MMP-9FL (full length Gelatinase B) (Homo sapiens, UniProt P14780); assay: Thiopeptolide substrate hydrolysis assay, MMP-9FL; conditions: HEPES pH 7.0, 22° C., read-out: IC50 (μM) Versus Certain MMPs: MMP-09 FL
Text: as §1, §2, §3

MMP-9FL (full length Gelatinase B), sequence (P14780 94-707, species assumed): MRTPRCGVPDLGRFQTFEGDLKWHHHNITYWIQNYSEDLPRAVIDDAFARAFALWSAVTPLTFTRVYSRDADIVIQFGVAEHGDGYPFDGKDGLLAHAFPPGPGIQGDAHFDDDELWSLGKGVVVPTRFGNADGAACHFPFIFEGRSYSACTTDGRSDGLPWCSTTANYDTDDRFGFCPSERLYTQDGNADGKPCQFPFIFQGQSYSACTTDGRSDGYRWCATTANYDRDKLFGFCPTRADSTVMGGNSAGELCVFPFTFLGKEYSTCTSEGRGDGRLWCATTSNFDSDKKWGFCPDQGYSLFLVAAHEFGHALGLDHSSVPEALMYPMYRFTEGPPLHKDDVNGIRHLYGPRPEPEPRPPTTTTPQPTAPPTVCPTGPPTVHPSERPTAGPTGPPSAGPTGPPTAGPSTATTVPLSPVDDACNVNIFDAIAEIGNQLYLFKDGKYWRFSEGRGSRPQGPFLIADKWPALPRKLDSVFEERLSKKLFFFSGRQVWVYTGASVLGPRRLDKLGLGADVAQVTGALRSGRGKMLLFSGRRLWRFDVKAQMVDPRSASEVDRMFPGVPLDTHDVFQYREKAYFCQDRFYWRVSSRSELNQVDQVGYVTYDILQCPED

| Compound | IC50 [1] | IC50 [2] | IC50 [3] | IC50 [4] |
| --- | --- | --- | --- | --- |
| O=C(NCc1ccncc1)c1cn2c(=O)n(Cc3ccccc3)c(=O)cc2s1 [Example 9, 6-Benzyl-5,7-dioxo-6,7-dihydro-5H-thiazolo[3,2-c]pyrimidine-2-carboxylic acid(pyridin-4-ylmethyl)-amide hydrochloride] | > 100 µM | > 100 µM | > 100 µM | > 100 µM |
| Cc1c(=O)n(Cc2ccccc2)c(=O)n2cc(C(=O)NCc3cccc(F)c3)sc12 [Example 10, 6-Benzyl-8-methyl-5,7-dioxo-6,7-dihydro-5H-thiazolo[3,2-c]pyrimidine-2-carboxylic acid 3-fluoro-benzylamide] | 21 µM | > 100 µM | > 30 µM | > 30 µM |
| O=C(NCc1ccccc1)c1cn2c(=O)n(Cc3ccncc3)c(=O)cc2s1 [Example 15, 6-(4-Pyridylmethyl)-5,7-dioxo-6,7-dihydro-5H-thiazolo[3,2-c]pyrimidine-2-carboxylic acid benzylamide hydrochloride] | > 100 µM | > 100 µM | > 100 µM | > 100 µM |
| O=C(NCc1ccncc1)C1Cn2c(cc(=O)n(Cc3ccccc3)c2=O)S1 (stereo not drawn) [Example 22, 6-Benzyl-5,7-dioxo-2,3,6,7-tetrahydro-5H-thiazolo[3,2-c]pyrimidine-2-carboxylic acid(pyridin-4-ylmethyl)-amide] | > 100 µM | > 100 µM | > 100 µM | > 100 µM |
| O=C(OCc1ccccc1)C1C[S+]([O-])c2cc(=O)n(Cc3ccccc3)c(=O)n21 (stereo not drawn) [Example 23, 6-Benzyl-1,5,7-trioxo-1,2,3,5,6,7-hexahydro-114-thiazolo[3,2-c]pyrimidine-3-carboxylic acid benzyl ester] | > 100 µM | > 100 µM | > 100 µM | > 100 µM |
| Cc1cccc(CNC(=O)c2cn3c(=O)n(Cc4ccccc4)c(=O)c(C)c3s2)c1 [Example 28, 6-Benzyl-8-methyl-5,7-dioxo-6,7-dihydro-5H-thiazolo[3,2-c]pyrimidine-2-carboxylic acid 3-methyl-benzylamide] | 71 µM | > 30 µM | > 100 µM | > 30 µM |
| Cc1c(=O)n(Cc2ccccc2)c(=O)n2cc(C(=O)NCc3ccc(F)cc3)sc12 [Example 30, 6-Benzyl-8-methyl-5,7-dioxo-6,7-dihydro-5H-thiazolo[3,2-c]pyrimidine-2-carboxylic acid 4-fluoro-benzylamide] | > 30 µM | > 30 µM | > 30 µM | > 30 µM |
| COc1ccc(CNC(=O)c2cn3c(=O)n(Cc4ccccc4)c(=O)c(C=O)c3s2)cc1 [Example 32, 6-Benzyl-8-formyl-5,7-dioxo-6,7-dihydro-5H-thiazolo[3,2-c]pyrimidine-2-carboxylic acid 4-methoxy-benzylamide] | > 30 µM | > 100 µM | > 30 µM | > 100 µM |
| Cc1c(=O)n(Cc2ccccc2)c(=O)n2cc(C(=O)NCc3ccncc3)sc12 [Example 36, 6-Benzyl-8-methyl-5,7-dioxo-6,7-dihydro-5H-thiazolo[3,2-c]pyrimidine-2-carboxylic acid(pyridin-4-ylmethyl)-amide hydrochloride] | > 100 µM | > 100 µM | > 100 µM | > 30 µM |
| Cc1c(=O)n(Cc2ccccc2)c(=O)n2cc(C(=O)NCc3ccc(F)c(F)c3)sc12 [Example 43, 6-Benzyl-8-methyl-5,7-dioxo-6,7-dihydro-5H-thiazolo[3,2-c]pyrimidine-2-carboxylic acid 3,4-difluoro-benzylamide] | > 30 µM | > 30 µM | > 100 µM | > 30 µM |
| Cc1c(=O)n(Cc2ccccc2)c(=O)n2cc(C(=O)NCc3cccnc3)sc12 [Example 44, 6-benzyl-8-methyl-5,7-dioxo-6,7-dihydro-5H-thiazolo[3,2-c]pyrimidine-2-carboxylic acid(pyridin-3-ylmethyl)-amide] | > 100 µM | > 100 µM | > 100 µM | > 30 µM |
| COc1ccc(CNC(=O)c2cn3c(=O)n(Cc4ccccc4)c(=O)c(C)c3s2)cc1F [Example 46, 6-Benzyl-8-methyl-5,7-dioxo-6,7-dihydro-5H-thiazolo[3,2-c]pyrimidine-2-carboxylic acid 3-fluoro-4-methoxy-benzylamide] | > 30 µM | > 100 µM | > 100 µM | > 100 µM |
| Cc1ccc(CNC(=O)c2cn3c(=O)n(Cc4ccccc4)c(=O)c(C)c3s2)cc1 [Example 48, 6-Benzyl-8-methyl-5,7-dioxo-6,7-dihydro-5H-thiazolo[3,2-c]pyrimidine-2-carboxylic acid 4-methyl-benzylamide] | 28 µM | > 30 µM | > 100 µM | > 100 µM |
| Cc1c(=O)n(Cc2ccccc2)c(=O)n2cc(C(=O)NCc3ccc(C(F)(F)F)cc3)sc12 [Example 49, 6-Benzyl-8-methyl-5,7-dioxo-6,7-dihydro-5H-thiazolo[3,2-c]pyrimidine-2-carboxylic acid 4-trifluoromethyl-benzylamide] | > 100 µM | > 30 µM | > 100 µM | > 100 µM |
| Cc1c(=O)n(Cc2ccccc2)c(=O)n2cc(C(=O)NCc3ccc(Cl)cc3)sc12 [Example 50, 6-Benzyl-8-methyl-5,7-dioxo-6,7-dihydro-5H-thiazolo[3,2-c]pyrimidine-2-carboxylic acid 4-chloro-benzylamide] | 31 µM | > 30 µM | > 100 µM | > 100 µM |
| Cc1c(=O)n(Cc2ccccc2)c(=O)n2cc(C(=O)NCc3ccc(OC(F)(F)F)cc3)sc12 [Example 51, 6-Benzyl-8-methyl-5,7-dioxo-6,7-dihydro-5H-thiazolo[3,2-c]pyrimidine-2-carboxylic acid 4-trifluoromethoxy-benzylamide] | > 30 µM | > 30 µM | > 100 µM | > 100 µM |
| COc1ccc(CNC(=O)c2cn3c(=O)n(Cc4ccc(C(=O)OCCN(C)C)cc4)c(=O)c(C)c3s2)cc1 [Example 57, 4-[2-(4-Methoxy-benzylcarbamoyl)-8-methyl-5,7-dioxo-7H-thiazolo[3,2c]pyrimidin-6-ylmethyl]-benzoic acid 2-dimethylamine-ethyl ester hydrochloride] | > 30 µM | > 30 µM | > 30 µM | > 30 µM |
| Cc1c(=O)n(Cc2ccc(C(=O)OCCN(C)C)cc2)c(=O)n2cc(C(=O)NCc3ccc(F)cc3)sc12 [Example 60, 4-[2-(4-Fluoro-benzylcarbamoyl)-8-methyl-5,7-dioxo-7H-thiazolo[3,2-c]pyrimidin-6-ylmethyl]-benzoic acid 2-dimethylamino-ethyl ester] | > 100 µM | > 100 µM | > 100 µM | > 100 µM |
| Cc1c(=O)n(Cc2ccc(C(=O)OCCN(C)C)cc2)c(=O)n2cc(C(=O)NCc3ccncc3)sc12 [Example 63, 4-{8-Methyl-5,7-dioxo-2-[(pyridin-4-ylmethyl)-carbamoyl]-7H-thiazolo[3,2-c]pyrimidin-6-ylmethyl}-benzoic acid 2-dimethylamino-ethyl ester dihydrochloride] | > 100 µM | > 100 µM | > 100 µM | > 100 µM |
| Cc1nc(Cn2c(=O)c(C)c3sc(C(=O)NCc4ccc(F)cc4)cn3c2=O)cs1 [Example 64, 8-Methyl-6-(2-methyl-thiazol-4-ylmethyl)-5,7-dioxo-6,7-dihydro-5H-thiazolo[3,2-c]pyrimidine-2-carboxylic acid 4-fluoro-benzylamide] | > 100 µM | > 100 µM | > 100 µM | > 30 µM |
| Cc1c(=O)n(Cc2ccc(F)cc2)c(=O)n2cc(C(=O)NCc3ccncc3)sc12 [Example 70, 6-(4-Fluoro-benzyl)-8-methyl-5,7-dioxo-6,7-dihydro-5H-thiazolo[3,2-c]pyrimidine-2-carboxylic acid(pyridin-4-ylmethyl)-amide hydrochloride] | > 30 µM | > 30 µM | > 30 µM | > 30 µM |
